{
  "source": "patent US20260355129A1",
  "about": "“5-HT2C AGONISTS FOR TREATING PRADER-WILLI SYNDROME (PWS), METABOLIC SYNDROMES, AND OTHER DISEASES AND DISORDERS” (Park City Bio, LLC, priority 2025, published 2026)",
  "format_in_all_cases": "cell-based",
  "conditions_in_all_cases": "HEK-293T, HEK293T, normalized to % 5-HT stimulation, class symbols (Table 5)",
  "key": {"[1]": {"molecular_target": "T1, 5-HT2B receptor (Homo sapiens, UniProt P41595)", "T1 construct": "expressed in transfected cells; host or cells: HEK293T", "T1 sequence (P41595 whole entry)": "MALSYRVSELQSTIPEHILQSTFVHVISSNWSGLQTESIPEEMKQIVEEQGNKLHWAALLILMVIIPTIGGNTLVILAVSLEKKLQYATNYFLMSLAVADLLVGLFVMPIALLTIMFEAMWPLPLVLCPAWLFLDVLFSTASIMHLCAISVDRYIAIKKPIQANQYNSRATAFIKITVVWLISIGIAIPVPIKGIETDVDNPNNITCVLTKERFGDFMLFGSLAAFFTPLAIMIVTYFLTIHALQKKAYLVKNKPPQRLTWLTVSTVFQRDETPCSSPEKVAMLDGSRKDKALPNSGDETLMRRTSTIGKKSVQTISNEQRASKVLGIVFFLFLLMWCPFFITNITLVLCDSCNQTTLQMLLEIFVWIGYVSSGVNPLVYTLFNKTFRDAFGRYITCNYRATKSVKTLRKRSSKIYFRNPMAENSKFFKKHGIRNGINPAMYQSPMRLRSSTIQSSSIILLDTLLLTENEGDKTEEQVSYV", "assay": "5-HT2 receptor-mediated Gq activation, Gq/y1 dissociation by BRET, 5-HT2B", "text": "(§1) To measure 5-HT2 receptor-mediated Gq activation via Gq/y1 dissociation as measured by Bioluminescence Resonance Energy Transfer (BRET) (McCorvy J D, Wacker D, Wang S, Agegnehu B, Liu J, Lansu K, Tribo A R, Olsen R H J, Che T, Jin J, Roth B L. Structural determinants of 5-HT2B receptor activation and biased agonism. Nat Struct Mo/Biol. 2018; 25(9): 787-96), HEK293T cells were sub-cultured in Dulbecco's Modified Eagle Medium (DMEM) supplemented with 10% dialyzed fetal bovine serum (FBS) and were co-transfected in a 1:1:1:1 ratio with Rluc8-fused human Gaq (Gaq-Rluc8), a GFP2-fused to the C-terminus of human Gy1(Gy1-GFP2), human G131, and 5-HT2 receptor using TransiT-2020. […] Substrate addition occurred 15 minutes before reading and utilized 10 μL of the Rluc substrate coelenterazine 400a for Gq dissociation BRET^2 (Prolume/Nanolight, 5 μM final concentration). Plates were read for luminescence at 400 nm and fluorescent GFP2 emission at 510 nm at 1 second per well using a Mithras LB940 multimode microplate reader (e.g. one provided by Berthold). The BRET ratios of fluorescence/luminescence were calculated per well and were plotted as a function of drug concentration using Graphpad Prism 8 (Graphpad Software Inc., San Diego, CA)."}, "[2]": {"molecular_target": "T2, 5-HT2C receptor (Homo sapiens, UniProt P28335)", "T2 construct": "expressed in transfected cells; host or cells: HEK293T", "T2 sequence (P28335 33-458)": "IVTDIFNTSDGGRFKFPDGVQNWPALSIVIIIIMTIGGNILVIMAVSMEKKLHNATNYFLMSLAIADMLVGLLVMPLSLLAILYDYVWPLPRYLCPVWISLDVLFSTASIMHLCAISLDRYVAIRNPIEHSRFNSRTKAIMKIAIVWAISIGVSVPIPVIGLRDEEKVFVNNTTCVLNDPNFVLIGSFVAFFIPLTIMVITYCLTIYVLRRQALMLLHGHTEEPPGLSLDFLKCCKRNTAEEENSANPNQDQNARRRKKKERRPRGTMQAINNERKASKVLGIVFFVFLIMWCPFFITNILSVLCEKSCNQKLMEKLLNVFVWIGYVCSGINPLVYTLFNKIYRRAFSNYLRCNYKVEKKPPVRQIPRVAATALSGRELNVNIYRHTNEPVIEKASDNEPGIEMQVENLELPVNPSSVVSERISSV", "assay": "5-HT2 receptor-mediated Gq activation, Gq/y1 dissociation by BRET, 5-HT2C", "text": "as §1"}, "[3]": {"molecular_target": "T3, 5-HT2A receptor (Homo sapiens, UniProt P28223)", "T3 construct": "expressed in transfected cells; host or cells: HEK293T", "T3 sequence (P28223 whole entry)": "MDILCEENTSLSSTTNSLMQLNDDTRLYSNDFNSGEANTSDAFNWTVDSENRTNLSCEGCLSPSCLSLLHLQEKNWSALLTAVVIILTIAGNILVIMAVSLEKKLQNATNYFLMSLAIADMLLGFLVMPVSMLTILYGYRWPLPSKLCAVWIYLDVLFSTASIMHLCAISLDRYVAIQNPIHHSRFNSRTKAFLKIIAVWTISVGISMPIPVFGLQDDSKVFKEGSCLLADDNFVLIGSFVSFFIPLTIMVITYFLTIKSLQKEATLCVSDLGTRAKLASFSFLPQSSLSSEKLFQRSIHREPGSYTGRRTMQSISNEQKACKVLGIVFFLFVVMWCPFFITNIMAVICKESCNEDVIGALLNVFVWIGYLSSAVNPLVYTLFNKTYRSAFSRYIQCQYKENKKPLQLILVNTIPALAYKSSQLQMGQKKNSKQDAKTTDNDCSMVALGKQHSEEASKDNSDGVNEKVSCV", "assay": "5-HT2 receptor-mediated Gq activation, Gq/y1 dissociation by BRET, 5-HT2A", "text": "as §1"}},
  "data": [
    {"smiles": "CNC[C@H]1C[C@@H]1c1cc(F)ccc1OC", "values": [
      {"measurement": "Emax", "setting": "[1]", "value": "50 to 80", "unit": "%"},
      {"measurement": "Emax", "setting": "[2]", "value": "50 to 80", "unit": "%"},
      {"measurement": "Emax", "setting": "[3]", "value": "50 to 80", "unit": "%"}
    ]},
    {"smiles": "CNCC1CC1c1cc(F)ccc1SC", "note": "(centres unmarked)", "values": [
      {"measurement": "Emax", "setting": "[2]", "value": "50 to 80", "unit": "%"},
      {"measurement": "Emax", "setting": "[3]", "value": "50 to 80", "unit": "%"}
    ]}
  ]
}
